The test system of experiment [1] is Gram-positive bacteria, including Staphylococcus aureus, Staphylococcus epidermidis, Listeria monocytogenes and M. tuberculosis. The format is cell-based.
In a further experiment the test system is M. tuberculosis H37rv. Kind of experiment: Antibiotic assay against M. tuberculosis (MIC / IC90). The note with it: for IC90: H37Rv. In kind it is cell-based, Mycobacterium tuberculosis.
A further experiment has as its system M. avium. The experiment can be described thus: MIC against other mycobacteria: M. avium. In kind it is cell-based. The note with it: Table 3, M. avium.
The test system of another experiment is M. marinum. Kind of experiment: MIC against other mycobacteria: M. marinum. To be noted: Table 3, M. marinum. The format is cell-based.
A further experiment has as its system M. abscessus. Kind of experiment: MIC against other mycobacteria: M. abscessus. In kind it is cell-based. The note with it: Table 3, M. abscessus.
The next experiment relates to M. smegmatis. The experiment can be described thus: MIC against other mycobacteria: M. smegmatis. In kind it is cell-based. To be noted: Table 3, M. smegmatis.
The mark [2] stands for this setting: Table 4, Formula III derivatives, M. tuberculosis H37rv.

SMILES strings stand for the structures. Converted amounts (≈) assume the structure as drawn. Like-named read-outs stand apart in the source and are kept apart here. A value given as a limit tells only on which side of the number the result lay.

As for `CC(=O)OC1C(C)C(OC2CC3OCOC3C(C)O2)/C=C/OC2(C)CC(O)c3c(c(C)c(O)c4c3C(=O)C=C(NC(=O)/C(C)=C\C=C\C(C(C)OC(=O)C(C)(C)CC(=O)O)C(O)C(C)C(O)C1C)C4=O)O2` (centres unmarked) [kanglemycin V1], the “activity as antibiotics against Gram-positive bacteria” value in experiment [1] was “active”. The compound further gave an IC90 in the experiment on M. tuberculosis H37rv of 3120 nM.

As for `CC(=O)OC1C(C)C(OC2CC3OCOC3C(C)O2)/C=C/OC2(C)OC3=C(C)C(=O)c4c(O)c(cc5c4C3=C2OCO5)NC(=O)/C(C)=C\C=C\C(C(C)OC(=O)C(C)(C)CC(=O)O)C(O)C(C)C(O)C1C` (centres unmarked) [kanglemycin V2], the “activity as antibiotics against Gram-positive bacteria” value in experiment [1] is listed as “active”. Further, the IC90 in the experiment on M. tuberculosis H37rv was 1560 nM. Further, 0.08 µg/mL (≈ 0.0803 µM) was the least that counted as inhibitory with M. tuberculosis H37rv (setting [2]) (MIC).

As to `CO[C@H]1/C=C/O[C@@]2(C)Oc3c(C)c(O)c4c(O)c(c(/C=N/N5CCN(C)CC5)c(O)c4c3C2=O)NC(=O)/C(C)=C\C=C\[C@H](C)[C@H](O)[C@@H](C)[C@@H](O)[C@@H](C)[C@H](OC(C)=O)[C@@H]1C` [Rif, rifampicin], the MIC in the experiment with M. avium was less than 0.195 µg/mL; in the experiment on M. marinum it was more than 25 µg/mL; against M. abscessus, more than 25 µg/mL; in the experiment with M. smegmatis it was more than 25 µg/mL; with M. tuberculosis H37rv, 0.05 µg/mL (≈ 0.0608 µM); with M. tuberculosis H37rv (Table 3, M. tuberculosis H37rv, Trial 2), 0.31 µg/mL (≈ 0.377 µM). The MIC in the experiment with M. tuberculosis H37rv (Table 3, M. tuberculosis H37rv, Trial 3) was 0.31 µg/mL (≈ 0.377 µM); against M. tuberculosis H37rv (Table 3, M. tuberculosis H37rv, Trial 4), 0.31 µg/mL (≈ 0.377 µM); with M. tuberculosis H37rv (setting [2]), less than 0.02 µg/mL.

What is called IC90 is the point of the concentration-response curve where the effect stands at 90%. A low value points to an effect from little substance. Broadly, the MIC is the least concentration at which growth counts as inhibited. Read a high MIC as weaker potency.
